# Experimental data published in PubChem BioAssay (NCI).
#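 All cell lines were grown in 96-well plates and treated with compound for 48 hours. GI50 marks 50% less growth. The concentration for full growth arrest is given as TGI.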
# How the values were obtained:
# Test in all cases: NCI tumour cell line growth inhibition, 48 h
# [1] = test system: UACC-257 melanoma
# [2] = test system: SK-MEL-5 melanoma
# [3] = test system: SF-539 CNS
# [4] = test system: MOLT-4 leukemia
# [5] = test system: UACC-62 melanoma
# [6] = test system: OVCAR-5 ovarian
# [7] = test system: KM12 colon
# [8] = test system: MDA-MB-231 breast
# [9] = test system: OVCAR-8 ovarian
# [10] = test system: HCT-15 colon
# [11] = test system: SF-268 CNS
# [12] = test system: T-47D breast
# [13] = test system: NCI-H23 lung
# [14] = test system: BT-549 breast
# [15] = test system: SW-620 colon
# [16] = test system: NCI-H226 lung
# [17] = test system: SK-MEL-2 melanoma
# [18] = test system: OVCAR-4 ovarian
# [19] = test system: A498 renal
# [20] = test system: TK-10 renal
# [21] = test system: NCI/ADR-RES ovarian
# [22] = test system: PC-3 prostate
# [23] = test system: HT29 colon
# [24] = test system: SN12C renal
# [25] = test system: LOX IMVI melanoma
# [26] = test system: HCT-116 colon
# [27] = test system: MCF7 breast
# [28] = test system: ACHN renal
# [29] = test system: A549 NSCLC
# [30] = test system: NCI-H460 lung
# [31] = test system: EKVX NSCLC
# [32] = test system: RXF 393 renal
# [33] = test system: 786-0 renal
# [34] = test system: OVCAR-3 ovarian
# [35] = test system: SK-OV-3 ovarian
# [36] = test system: NCI-H522 lung
# [37] = test system: RPMI-8226 leukemia
# [38] = test system: CAKI-1 renal
# [39] = test system: COLO 205 colon
# [40] = test system: SK-MEL-28 melanoma
# [41] = test system: SNB-19 CNS
# [42] = test system: UO-31 renal
# [43] = test system: CCRF-CEM leukemia
# [44] = test system: HOP-92 NSCLC
# [45] = test system: HCC-2998 colon
# [46] = test system: MALME-3M melanoma
# [47] = test system: IGROV1 ovarian
# [48] = test system: HS 578T breast
# [49] = test system: MDA-MB-435
# [50] = test system: DU-145 prostate
# [51] = test system: HOP-62 NSCLC
# [52] = test system: U251 CNS
# [53] = test system: K-562 leukemia
# [54] = test system: SF-295 CNS
# [55] = test system: SNB-75 CNS
# [56] = test system: M14 melanoma
compound,measurement,setting,value
COc1cc(-n2ccnc2)cc(OC)c1OC,GI50,[1],> 100 µM
same,TGI,[1],> 100 µM
same,GI50,[2],59 µM
same,TGI,[2],> 100 µM
same,GI50,[3],> 100 µM
same,TGI,[3],> 100 µM
same,GI50,[4],42.2 µM
same,TGI,[4],> 100 µM
same,GI50,[5],36 µM
same,TGI,[5],> 100 µM
same,GI50,[6],> 100 µM
same,TGI,[6],> 100 µM
same,GI50,[7],43.2 µM
same,TGI,[7],> 100 µM
same,GI50,[8],79 µM
same,TGI,[8],> 100 µM
same,GI50,[9],56.8 µM
same,TGI,[9],> 100 µM
same,GI50,[10],40 µM
same,TGI,[10],> 100 µM
same,GI50,[11],37.9 µM
same,TGI,[11],> 100 µM
same,GI50,[12],> 100 µM
same,TGI,[12],> 100 µM
same,GI50,[13],> 100 µM
same,TGI,[13],> 100 µM
same,GI50,[14],> 100 µM
same,TGI,[14],> 100 µM
same,GI50,[15],> 100 µM
same,TGI,[15],> 100 µM
same,GI50,[16],36.2 µM
same,TGI,[16],> 100 µM
same,GI50,[17],64.1 µM
same,TGI,[17],> 100 µM
same,GI50,[18],> 100 µM
same,TGI,[18],> 100 µM
same,GI50,[19],35.8 µM
same,TGI,[19],> 100 µM
same,GI50,[20],42.5 µM
same,TGI,[20],> 100 µM
same,GI50,[21],34.2 µM
same,TGI,[21],> 100 µM
same,GI50,[22],50 µM
same,TGI,[22],> 100 µM
same,GI50,[23],> 100 µM
same,TGI,[23],> 100 µM
same,GI50,[24],86 µM
same,TGI,[24],> 100 µM
same,GI50,[25],60.3 µM
same,TGI,[25],> 100 µM
same,GI50,[26],31.9 µM
same,TGI,[26],> 100 µM
same,GI50,[27],41.7 µM
same,TGI,[27],> 100 µM
same,GI50,[28],34.6 µM
same,TGI,[28],> 100 µM
same,GI50,[29],95.1 µM
same,TGI,[29],> 100 µM
same,GI50,[30],41.6 µM
same,TGI,[30],> 100 µM
same,GI50,[31],84.4 µM
same,TGI,[31],> 100 µM
same,GI50,[32],> 100 µM
same,TGI,[32],> 100 µM
same,GI50,[33],39.1 µM
same,TGI,[33],> 100 µM
same,GI50,[34],51.6 µM
same,TGI,[34],> 100 µM
same,GI50,[35],80.2 µM
same,TGI,[35],> 100 µM
same,GI50,[36],60.6 µM
same,TGI,[36],> 100 µM
same,GI50,[37],75.6 µM
same,TGI,[37],> 100 µM
same,GI50,[38],26.7 µM
same,TGI,[38],55.8 µM
same,GI50,[39],> 100 µM
same,TGI,[39],> 100 µM
same,GI50,[40],> 100 µM
same,TGI,[40],> 100 µM
same,GI50,[41],> 100 µM
same,TGI,[41],> 100 µM
same,GI50,[42],21.4 µM
same,TGI,[42],> 100 µM
same,GI50,[43],47.6 µM
same,TGI,[43],> 100 µM
same,GI50,[44],72.6 µM
same,TGI,[44],> 100 µM
same,GI50,[45],99.5 µM
same,TGI,[45],> 100 µM
same,GI50,[46],35.1 µM
same,TGI,[46],> 100 µM
same,GI50,[47],11.1 µM
same,TGI,[47],51.6 µM
same,GI50,[48],> 100 µM
same,TGI,[48],> 100 µM
same,GI50,[49],75.6 µM
same,TGI,[49],> 100 µM
same,GI50,[50],> 100 µM
same,TGI,[50],> 100 µM
same,GI50,[51],31.9 µM
same,TGI,[51],> 100 µM
same,GI50,[52],58.6 µM
same,TGI,[52],> 100 µM
same,GI50,[53],68.1 µM
same,TGI,[53],> 100 µM
same,GI50,[54],20.9 µM
same,TGI,[54],63.1 µM
CNS(=O)(=O)OCC1OC(n2cnc3c(N)ncnc32)C(O)C1O (stereo unspecified),GI50,[1],> 100 µM
same,TGI,[1],> 100 µM
same,GI50,[2],> 100 µM
same,TGI,[2],> 100 µM
same,GI50,[3],> 100 µM
same,TGI,[3],> 100 µM
same,GI50,[5],> 100 µM
same,TGI,[5],> 100 µM
same,GI50,[6],> 100 µM
same,TGI,[6],> 100 µM
same,GI50,[7],> 100 µM
same,TGI,[7],> 100 µM
same,GI50,[8],> 100 µM
same,TGI,[8],> 100 µM
same,GI50,[9],> 100 µM
same,TGI,[9],> 100 µM
same,GI50,[10],> 100 µM
same,TGI,[10],> 100 µM
same,GI50,[11],> 100 µM
same,TGI,[11],> 100 µM
same,GI50,[12],> 100 µM
same,TGI,[12],> 100 µM
same,GI50,[13],> 100 µM
same,TGI,[13],> 100 µM
same,GI50,[14],> 100 µM
same,TGI,[14],> 100 µM
same,GI50,[15],> 100 µM
same,TGI,[15],> 100 µM
same,GI50,[16],> 100 µM
same,TGI,[16],> 100 µM
same,GI50,[17],> 100 µM
same,TGI,[17],> 100 µM
same,GI50,[18],> 100 µM
same,TGI,[18],> 100 µM
same,GI50,[19],> 100 µM
same,TGI,[19],> 100 µM
same,GI50,[20],> 100 µM
same,TGI,[20],> 100 µM
same,GI50,[21],> 100 µM
same,TGI,[21],> 100 µM
same,GI50,[22],> 100 µM
same,TGI,[22],> 100 µM
same,GI50,[23],> 100 µM
same,TGI,[23],> 100 µM
same,GI50,[24],> 100 µM
same,TGI,[24],> 100 µM
same,GI50,[25],> 100 µM
same,TGI,[25],> 100 µM
same,GI50,[26],> 100 µM
same,TGI,[26],> 100 µM
same,GI50,[27],> 100 µM
same,TGI,[27],> 100 µM
same,GI50,[28],> 100 µM
same,TGI,[28],> 100 µM
same,GI50,[29],> 100 µM
same,TGI,[29],> 100 µM
same,GI50,[30],> 100 µM
same,TGI,[30],> 100 µM
same,GI50,[31],> 100 µM
same,TGI,[31],> 100 µM
same,GI50,[32],> 100 µM
same,TGI,[32],> 100 µM
same,GI50,[33],> 100 µM
same,TGI,[33],> 100 µM
same,GI50,[34],> 100 µM
same,TGI,[34],> 100 µM
same,GI50,[35],> 100 µM
same,TGI,[35],> 100 µM
same,GI50,[36],> 100 µM
same,TGI,[36],> 100 µM
same,GI50,[55],> 100 µM
same,TGI,[55],> 100 µM
same,GI50,[37],> 100 µM
same,TGI,[37],> 100 µM
same,GI50,[38],> 100 µM
same,TGI,[38],> 100 µM
same,GI50,[56],> 100 µM
same,TGI,[56],> 100 µM
same,GI50,[39],> 100 µM
same,TGI,[39],> 100 µM
same,GI50,[40],> 100 µM
same,TGI,[40],> 100 µM
same,GI50,[41],> 100 µM
same,TGI,[41],> 100 µM
same,GI50,[42],> 100 µM
same,TGI,[42],> 100 µM
same,GI50,[43],> 100 µM
same,TGI,[43],> 100 µM
same,GI50,[44],> 100 µM
same,TGI,[44],> 100 µM
same,GI50,[45],> 100 µM
same,TGI,[45],> 100 µM
same,GI50,[46],> 100 µM
same,TGI,[46],> 100 µM
same,GI50,[47],> 100 µM
same,TGI,[47],> 100 µM
same,GI50,[48],> 100 µM
same,TGI,[48],> 100 µM
same,GI50,[49],> 100 µM
same,TGI,[49],> 100 µM
same,GI50,[50],> 100 µM
same,TGI,[50],> 100 µM
same,GI50,[51],> 100 µM
same,TGI,[51],> 100 µM
same,GI50,[52],> 100 µM
same,TGI,[52],> 100 µM
same,GI50,[54],> 100 µM
same,TGI,[54],> 100 µM
